# From article PMC11784200, “Insights into antibiotic resistance promoted by quinolone exposure” (Antimicrobial Agents and Chemotherapy, 2024)
# Like-named read-outs stand apart in the source and are kept apart here.
# Key:
# [1] = tested on: E. coli colonies that became resistant to CHL after CIP treatment; assay type: cell-based
# E. coli marR mutant = assay: CHL MIC of marR mutant; assay type: cell-based; conditions: partial deletion of marR in WT E. coli
# Protocol: (§1) Minimum inhibitory concentration (MIC) values were determined in triplicate as described ([55]). […] All compounds were purchased from Sigma.
# MG1655 ΔdinB ΔpolB ΔumuD = assay: Broth-based MIC, ΔdinB ΔpolB ΔumuD; assay type: cell-based, E. coli; conditions: Escherichia coli
# Protocol: as §1
# MG1655 ∆dinB = assay: Broth-based MIC, ∆dinB; assay type: cell-based, E. coli; conditions: Escherichia coli
# Protocol: as §1
# MG1655 ∆polB = assay: Broth-based MIC, ∆polB; assay type: cell-based, E. coli; conditions: Escherichia coli
# Protocol: as §1
# MG1655 lexA(S119A) = assay: Broth-based MIC, lexA(S119A); assay type: cell-based, E. coli; conditions: Escherichia coli
# Protocol: as §1
# MG1655 ∆umuD = assay: Broth-based MIC, ∆umuD; assay type: cell-based, E. coli; conditions: Escherichia coli
# Protocol: as §1
# MG1655 ∆recA = assay: Broth-based MIC, ∆recA; assay type: cell-based, E. coli; conditions: Escherichia coli
# Protocol: as §1
# E. coli MLS83L = assay: Broth-based MIC, MLS83L; assay type: cell-based; conditions: Escherichia coli
# Protocol: as §1
# [2] = colony 1, plates with 2× MIC after 24 h on LB without selection
# [3] = colony 2, plates with 2× MIC after 24 h on LB without selection
# [4] = colony 3, plates with 2× MIC after 24 h on LB without selection
# [5] = colony 4, plates with 2× MIC after 24 h on LB without selection
# [6] = colony 5, plates with 2× MIC after 24 h on LB without selection
# [7] = colony 6, plates with 2× MIC after 24 h on LB without selection
# [8] = colony 7, plates with 2× MIC after 24 h on LB without selection
# [9] = colony 8, plates with 2× MIC after 24 h on LB without selection
# [10] = colony 9, plates with 2× MIC after 24 h on LB without selection
# [11] = colony 10, plates with 2× MIC after 24 h on LB without selection
# [12] = colony 11, plates with 2× MIC after 24 h on LB without selection
# [13] = colony 12, plates with 2× MIC after 24 h on LB without selection
# [14] = colony 13, plates with 2× MIC after 24 h on LB without selection
# [15] = colony 14, plates with 2× MIC after 24 h on LB without selection
# [16] = colony 15, plates with 2× MIC after 24 h on LB without selection
# [17] = colony 16, plates with 2× MIC after 24 h on LB without selection
# [18] = colony 17 (first line so numbered, r20), plates with 2× MIC after 24 h on LB without selection
# [19] = colony 17 (second line so numbered, r21), plates with 2× MIC after 24 h on LB without selection
# [20] = colony 19, plates with 2× MIC after 24 h on LB without selection
# [21] = colony 20, plates with 2× MIC after 24 h on LB without selection
# [22] = colony 21, plates with 2× MIC after 24 h on LB without selection
# [23] = colony 22, plates with 2× MIC after 24 h on LB without selection
# [24] = colony 23, plates with 2× MIC after 24 h on LB without selection
# [25] = colony 24, plates with 2× MIC after 24 h on LB without selection
# [26] = colony 25, plates with 2× MIC after 24 h on LB without selection
# [27] = colony 26, plates with 2× MIC after 24 h on LB without selection
# [28] = colony 27, plates with 2× MIC after 24 h on LB without selection
SMILES,"Antibiotic resistance [1, 2]","Antibiotic resistance [1, 3]","Antibiotic resistance [1, 4]","Antibiotic resistance [1, 5]","Antibiotic resistance [1, 6]","Antibiotic resistance [1, 7]","Antibiotic resistance [1, 8]","Antibiotic resistance [1, 9]","Antibiotic resistance [1, 10]","Antibiotic resistance [1, 11]","Antibiotic resistance [1, 12]","Antibiotic resistance [1, 13]","Antibiotic resistance [1, 14]","Antibiotic resistance [1, 15]","Antibiotic resistance [1, 16]","Antibiotic resistance [1, 17]","Antibiotic resistance [1, 18]","Antibiotic resistance [1, 19]","Antibiotic resistance [1, 20]","Antibiotic resistance [1, 21]",further results
"[H]/N=C(/N)N[C@H]1[C@H](O)[C@@H](O)[C@H](O[C@@H]2O[C@@H](C)[C@](O)(C=O)[C@H]2O[C@@H]2O[C@@H](CO)[C@H](O)[C@@H](O)[C@@H]2NC)[C@@H](N/C(N)=N\[H])[C@@H]1O [STR, streptomycin]",No,No,No,Yes,No,No,No,No,No,No,No,No,No,No,No,No,No,No,No,No,"Antibiotic resistance [1, 22]: No; Antibiotic resistance [1, 23]: No; Antibiotic resistance [1, 24]: No; Antibiotic resistance [1, 25]: No; Antibiotic resistance [1, 26]: No; Antibiotic resistance [1, 27]: No; Antibiotic resistance [1, 28]: No"
"Oc1cc(Cl)ccc1Oc1ccc(Cl)cc1Cl [TRI, triclosan]",No,No,Yes,No,No,No,Yes,Yes,No,Yes,No,No,No,No,No,No,No,No,No,No,"Antibiotic resistance [1, 22]: No; Antibiotic resistance [1, 23]: No; Antibiotic resistance [1, 24]: No; Antibiotic resistance [1, 25]: No; Antibiotic resistance [1, 26]: No; Antibiotic resistance [1, 27]: No; Antibiotic resistance [1, 28]: No"
"NC[C@H]1O[C@H](O[C@H]2[C@H](O)[C@@H](O[C@H]3O[C@H](CO)[C@@H](O)[C@H](N)[C@H]3O)[C@H](N)C[C@@H]2N)[C@H](O)[C@@H](O)[C@@H]1O [KAN, kanamycin]",,,,,,,,,,,,,,,,,,,,,Antibiotic resistance [1]: No
"CC1(C)S[C@@H]2[C@H](NC(=O)[C@H](N)c3ccccc3)C(=O)N2[C@H]1C(=O)O [AMP, ampicillin]",No,No,No,No,No,Yes,No,No,No,No,No,No,No,No,No,No,No,No,No,No,"Antibiotic resistance [1, 22]: No; Antibiotic resistance [1, 23]: No; Antibiotic resistance [1, 24]: No; Antibiotic resistance [1, 25]: No; Antibiotic resistance [1, 26]: No; Antibiotic resistance [1, 27]: No; Antibiotic resistance [1, 28]: No"
"CO[C@H]1/C=C/O[C@@]2(C)Oc3c(C)c(O)c4c(O)c(c(/C=N/N5CCN(C)CC5)c(O)c4c3C2=O)NC(=O)/C(C)=C\C=C\[C@H](C)[C@H](O)[C@@H](C)[C@@H](O)[C@@H](C)[C@H](OC(C)=O)[C@@H]1C [RIF, rifampin]",,,,,,,,,,,,,,,,,,,,,Antibiotic resistance [1]: No
"COc1cc(Cc2cnc(N)nc2N)cc(OC)c1OC [TMP, trimethoprim]",,,,,,,,,,,,,,,,,,,,,Antibiotic resistance [1]: No and Yes
"O=C(N[C@H](CO)[C@H](O)c1ccc([N+](=O)[O-])cc1)C(Cl)Cl [CHL, chloramphenicol]",No,No,Yes,Yes,Yes,Yes,Yes,Yes,Yes,Yes,Yes,Yes,Yes,Yes,Yes,Yes,Yes,Yes,Yes,Yes,"Increase in the MIC compared to the WT strain (E. coli marR mutant): eightfold; Antibiotic resistance [1, 22]: Yes; Antibiotic resistance [1, 23]: Yes; Antibiotic resistance [1, 24]: Yes; Antibiotic resistance [1, 25]: Yes; Antibiotic resistance [1, 26]: Yes; Antibiotic resistance [1, 27]: Yes; Antibiotic resistance [1, 28]: Yes; Colonies that retained resistance ([1]; of 27 CHL-resistant colonies from CIP treatment, cultured without selection): 25"
"O=C(O)c1cn(C2CC2)c2cc(N3CCNCC3)c(F)cc2c1=O [CIP, ciprofloxacin]",,,,,,,,,,,,,,,,,,,,,MIC (MG1655 ΔdinB ΔpolB ΔumuD): 0.032 µg/mL; MIC (MG1655 ∆dinB): 0.032 µg/mL; MIC (MG1655 ∆polB): 0.032 µg/mL; MIC (MG1655 lexA(S119A)): 0.008 µg/mL; MIC (MG1655 ∆umuD): 0.021 µg/mL; MIC (MG1655 ∆recA): 0.006 µg/mL; MIC (E. coli MLS83L): 0.256 µg/mL
"CN(C)[C@@H]1C(O)=C(C(N)=O)C(=O)[C@@]2(O)C(O)=C3C(=O)c4c(O)cccc4[C@@](C)(O)[C@H]3C[C@@H]12 [TET, tetracycline]",,,,,,,,,,,,,,,,,,,,,Antibiotic resistance [1]: No and Yes
